Assays:
[1] = system: diamondback moth (Plutella xylostella) and cabbage cluster caterpillar (Crocidolomia pavonana) known to be resistant to chlorantraniliprole; assay: Example 5 cabbage plot study, yield under chlorantraniliprole-resistant pest infestation; format: in vivo, Plutella xylostella; Crocidolomia pavonana (on cabbage); conditions: rate 30.9 g/ha; cabbage plots
Description: (§1) A study was conducted to determine the effect that a synergistic weight ratio of Bacillus thuringiensis subsp. kurstaki and Bacillus thuringiensis subsp. aizawai would have on insect species with known resistance to the commonly used insecticide, chlorantraniliprole. Prevathon™ (available from DuPont™) is a 5% suspension concentrate of chlorantraniliprole and was used as the source of chlorantraniliprole in the following two studies. Sympatico™ emulsifiable suspension concentrate (available from Valent BioSciences Corporation) was used as the source of Bacillus thuringiensis subsp. aizawai and Bacillus thuringiensis kurstaki. Sympatico™ contains about a 60:40 weight ratio of Bacillus thuringiensis subsp. kurstaki fermentation solids, spores and toxins to Bacillus thuringiensis subsp. aizawai fermentation solids, spores and toxins. The plots were planted with cabbage and naturally infested with populations of diamondback moth (Plutella xylostella) and cabbage cluster caterpillar (Crocidolomia pavonana) that were known to be resistant to chlorantraniliprole.

[2] = system: insect species with known resistance to chlorantraniliprole; assay: Example 6 plot study, yield with insect species resistant to chlorantraniliprole; format: in vivo; conditions: rate 30.9 g a.i/ha
Description: as §1
Another study was conducted to determine the effect that a synergistic weight ratio of Bacillus thuringiensis subsp. kurstaki and Bacillus thuringiensis subsp. aizawai would have on insect species with known resistance to the commonly used insecticide, chlorantraniliprole.

CNC(=O)c1cc(Cl)cc(C)c1NC(=O)c1cc(Br)nn1-c1ncccc1Cl [Chlorantraniliprole]
Yield [1]: 67.0 kg/plot | Yield [2]: 88.3 kg/plot
